Test results from patent US20250281453A1, “COMBINATION THERAPIES COMPRISING QTX125” (QUIMATRYX, S.L., priority 2022, published 2025).

Experiments:
[1] = biological target: T1, HDAC 6 (Homo sapiens, UniProt Q9UBN7); details: cited from earlier work
T1 sequence (Q9UBN7 1-1215): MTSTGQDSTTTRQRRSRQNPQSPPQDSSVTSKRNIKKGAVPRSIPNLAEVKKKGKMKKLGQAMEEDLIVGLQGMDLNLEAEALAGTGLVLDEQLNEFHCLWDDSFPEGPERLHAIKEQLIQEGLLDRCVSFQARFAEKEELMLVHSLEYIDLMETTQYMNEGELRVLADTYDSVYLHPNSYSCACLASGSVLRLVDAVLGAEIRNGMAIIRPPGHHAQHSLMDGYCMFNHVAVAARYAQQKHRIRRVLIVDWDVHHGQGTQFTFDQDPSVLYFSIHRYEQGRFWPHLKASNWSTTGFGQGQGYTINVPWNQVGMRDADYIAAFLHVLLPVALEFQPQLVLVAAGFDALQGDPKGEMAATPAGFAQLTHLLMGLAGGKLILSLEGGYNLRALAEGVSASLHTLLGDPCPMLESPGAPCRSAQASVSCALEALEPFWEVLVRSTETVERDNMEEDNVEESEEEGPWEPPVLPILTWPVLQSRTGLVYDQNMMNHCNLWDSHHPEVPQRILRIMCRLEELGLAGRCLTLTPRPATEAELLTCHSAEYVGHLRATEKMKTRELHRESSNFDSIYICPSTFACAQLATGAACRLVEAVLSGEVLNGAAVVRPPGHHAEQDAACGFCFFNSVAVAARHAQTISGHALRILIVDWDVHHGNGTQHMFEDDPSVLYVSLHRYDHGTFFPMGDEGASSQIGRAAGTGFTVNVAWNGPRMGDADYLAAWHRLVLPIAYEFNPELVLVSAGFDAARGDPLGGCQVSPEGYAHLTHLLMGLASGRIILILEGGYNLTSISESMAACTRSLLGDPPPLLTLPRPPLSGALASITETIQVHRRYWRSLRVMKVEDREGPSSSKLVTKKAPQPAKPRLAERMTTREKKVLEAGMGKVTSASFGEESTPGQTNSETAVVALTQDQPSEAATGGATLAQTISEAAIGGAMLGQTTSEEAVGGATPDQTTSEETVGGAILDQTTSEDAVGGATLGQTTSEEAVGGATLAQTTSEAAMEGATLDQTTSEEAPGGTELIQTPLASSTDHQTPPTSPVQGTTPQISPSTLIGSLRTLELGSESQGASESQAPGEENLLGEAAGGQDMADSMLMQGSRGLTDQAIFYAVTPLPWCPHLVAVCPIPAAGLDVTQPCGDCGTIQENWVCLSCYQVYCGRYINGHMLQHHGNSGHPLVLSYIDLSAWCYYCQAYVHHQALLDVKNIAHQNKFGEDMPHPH

[2] = Pharmacokinetic properties; assay type: in vivo; details: compared with other histone deacetylase inhibitors
[3] = system: HCT-116 colonic cancer cells; assay: QTX125-containing combination therapy, hexosaminidase cell viability; assay type: cell-based; details: for combination index (C.I.): HCT-116; for EC50: Homo sapiens, HCT-116, HCT-116
Procedure: To assess the oncolytic efficacy of QTX125-containing combination therapies in vitro, colonic, pancreatic, hepatic and ovarian tumour cells were administered sorafenib, gemcitabine or bortezomib at EC25, EC50 and EC75 doses. QTX125 was co-administered in order to produce a dose response curve.
To prepare cells for viability assays, cells were transferred into 96 well tissue culture plates (Cultek), and resuspended in 100 µL at the following densities: 10,000 cells/well (Hep-G2 and MiaPaCa-2), 5000 cells/well (Panc-1 and SK-OV-3) or 3000 cells/well (HCT-116). Following 24 hours of incubation, media was removed and replaced with 100 µL media spiked with QTX125 and the test chemotherapeutic agents. Stock solutions for the agents used in this study are shown below in Table 1. Cells were incubated for a further 72 hours before cell viability was assessed using both ALAMAR® and hexosaminidase assays.
For the hexosaminidase assay, media containing QTX125 and the test chemotherapeutic agents was removed, and cells were washed once with PBS. 60 μL of substrate solution (containing: 7.5 mM p-nitrophenol-N-acetyl-beta-D-glucosamide [Sigma N-9376], 0.1 M sodium citrate, pH 5.0 and 0.25% Triton X-100) was added to each well and cells were incubated at 37° C. for at least 1 hour. Incubating cells in this manner causes the substrate solution to become bright yellow, at which point 90 μL of developer solution (containing 50 mM Glycine pH 10.4 and 5 mM EDTA) was added to each well. Absorbance at 410 nm was recorded using a plate reader.
Control values were normalised to 100% and percentage (%) viability was calculated. Data were used to plot log dose-response curves using a sigmoid dose-response (variable slope) equation. EC50 values were obtained using Equation 1, where ‘X’ is the logarithmic concentration; ‘Y’ is the response output and it is assumed that Y starts at bottom of the graph and reaches the top with an overall sigmoid shape.
Cls were obtained using Equation 2, where (Dm) 1 is the ECx concentration of QTX125 and (D) 1 is the ECx concentration of QTX125 in the presence of sorafenib, gemcitabine or bortezomib.
In order to assess the oncolytic efficacy of QTX125-containing combination therapies, monotherapy EC25, EC50 and EC75 doses for sorafenib, gemcitabine and bortezomib were calculated (as per Experiment 3) and administered to wells at these fixed concentrations. QTX125 was co-administered at a range of concentrations, in order to plot a dose-response curve such that the EC50 dose of QTX125 could be calculated in the presence of sorafenib/gemcitabine/bortezomib. QTX125 was administered to cells at a starting high-dose, and a 1:1 dilution was completed thereafter. In this part of the study, only the hexosaminidase assay was employed to assess cell viability following treatment with QTX125-containing combination therapies.
It should be noted that it was not possible to determine the appropriate concentrations for gemcitabine in all cell lines tested. In cells resistant to gemcitabine, nominal concentrations were used in place of EC25, EC50 and EC75 doses (e.g., nominal doses of 1, 10 and 100 µM were used in Panc-1 and Hep-G2 cells).

[4] = + bortezomib at EC25 dose (0.005 μM)
[5] = + bortezomib at EC50 dose (0.007 μM)
[6] = + bortezomib at EC75 dose (0.01 μM)
[7] = + gemcitabine at EC25 dose (0.001 μM)
[8] = + sorafenib at EC25 dose (2 μM)
[9] = + sorafenib at EC50 dose (3.6 μM)
[10] = + sorafenib at EC75 dose (6.5 μM)

## O=C(NO)c1ccc(CNC(=O)c2[nH]c(-c3ccc(O)cc3)cc2-c2ccoc2)cc1 [QTX125, 3-(3-Furyl)-N-{4-[(hydroxyamino)carbonyl]benzyl}-5-(4-hydroxyphenyl)-1 Hpyrrole-2-carboxamide]
[1]
  HDAC 6 inhibition: highly selective and highly potent
[2]
  pharmacokinetic properties (half-lives and distribution volumes): higher half-lives and distribution volumes
[3]; [4]
  combination index (C.I.): 1.0 arbitrary units
  EC50: 2460 nM
[3]; [5]
  combination index (C.I.): 1.1 arbitrary units
  EC50: 2540 nM
[3]; [6]
  combination index (C.I.): 0.9 arbitrary units
  EC50: 2140 nM
[3]; [7]
  combination index (C.I.): 1.1 arbitrary units
  EC50: 322 nM
[3]; [8]
  combination index (C.I.): 0.9 arbitrary units
  EC50: 2350 nM
[3]; [9]
  combination index (C.I.): 0.9 arbitrary units
  EC50: 2210 nM
[3]; [10]
  combination index (C.I.): 0.9 arbitrary units
  EC50: 2260 nM
[3]; no second agent (control of Table 5.1.1)
  EC50: 2590 nM
[3]; no second agent (control of Table 5.1.2)
  EC50: 305 nM
[3]; no second agent (control of Table 5.1.3)
  EC50: 2360 nM
